Assay results published in PubChem BioAssay (NCI).
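The compound was tested at five concentrations on cells cultured in 96-well plates, with a 48-hour exposure period. At the TGI there is no net growth.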

Assays:
Experiment in all cases: NCI-60 cell line screen, 48 h
CAKI-1 renal = tested on: CAKI-1 renal
CCRF-CEM leukemia = tested on: CCRF-CEM leukemia
HOP-92 NSCLC = tested on: HOP-92 NSCLC
MOLT-4 leukemia = tested on: MOLT-4 leukemia
NCI-H460 lung = tested on: NCI-H460 lung
OVCAR-4 ovarian = tested on: OVCAR-4 ovarian
TK-10 renal = tested on: TK-10 renal
RXF 393 renal = tested on: RXF 393 renal
SR leukemia = tested on: SR leukemia

| Compound | TGI (CAKI-1 renal) [µM] | TGI (CCRF-CEM leukemia) [µM] | TGI (HOP-92 NSCLC) [µM] | TGI (MOLT-4 leukemia) [µM] | TGI (NCI-H460 lung) [µM] | TGI (OVCAR-4 ovarian) [µM] | TGI (TK-10 renal) [µM] | TGI (RXF 393 renal) [µM] | TGI (SR leukemia) [µM] |
| --- | --- | --- | --- | --- | --- | --- | --- | --- | --- |
| O=C(Nc1cccc(Cl)c1)C(=O)C(C(=O)c1ccc2ccccc2c1)C1OC(=O)c2ccccc21 (stereo not given) | 67.6 | 52.4 | 54.3 | 23.6 | 30.5 | 33 | 77.4 | – | – |
| COc1ccc2c(c1OCC(=O)O)C(=O)C(CCC(=O)O)CC2 (stereo not given) | > 100 | > 100 | – | > 100 | > 100 | > 100 | – | > 100 | – |
| COC(=O)/C(C#N)=C1\N=NNN1c1ccc(OC)cc1 | > 100 | > 100 | > 100 | > 100 | > 100 | – | > 100 | > 100 | – |
| CC1(C)COC(c2cccc3c2C(=O)c2cccc(Cl)c2-3)=N1 | > 100 | > 100 | – | > 100 | > 100 | > 100 | > 100 | 68.2 | – |
| O=C(CC1C(=O)Nc2ccccc2S1=O)Nc1cc(Cl)ccc1Cl (stereo not given) | > 100 | > 100 | > 100 | > 100 | > 100 | – | > 100 | > 100 | > 100 |
| O=[N+]([O-])c1ccc2occ3c2c1CCC3 | – | > 100 | > 100 | > 100 | > 100 | > 100 | > 100 | > 100 | > 100 |
| CCCCCCCCCCCCCCCC(=O)OCCOCCOCCOCc1ccccc1 | > 100 | – | 69.4 | – | > 100 | > 100 | > 100 | > 100 | – |
| N#CC(C(=O)/C(=N\NC(N)=O)C(C#N)c1ccc(Cl)cc1)c1ccc(Cl)cc1 (stereo not given) | – | > 100 | > 100 | > 100 | > 100 | > 100 | – | > 100 | – |
| Cc1nc(Nc2ccc(Cl)cc2)sc1C(=O)NNC(=S)NN | 44.8 | 88.5 | 43.2 | 58.6 | 38.3 | 32.7 | 45.1 | 27.6 | – |
| Cc1ccc2nc(/C(=C/c3ccc(/C=C(\NC(=O)c4ccccc4)c4nc5ccc(C)cc5[nH]4)c(C)c3)NC(=O)c3ccccc3)[nH]c2c1 | 91.3 | 41.9 | 52 | 26.7 | 35.8 | – | 88 | – | > 100 |
| C=CCCCCC1CCC2CCC(CCCCC=C)N12 (stereo not given) | 84.8 | 37.7 | 22.8 | 36.3 | 26.2 | 26.3 | 34.8 | – | 33.4 |
| c1ccc2c(OCCSCCCCCCCCCCSCCOc3cccc4ccccc34)cccc2c1 | > 100 | > 100 | > 100 | > 100 | > 100 | – | > 100 | > 100 | – |
| CN(C)C(=S)/N=c1\sn(C)/c(=N\C(=S)N(C)C)n1C | > 100 | – | > 100 | > 100 | > 100 | > 100 | > 100 | > 100 | > 100 |
| CC(C)(C)c1cc(C(P(=O)(O)O)P(=O)(O)O)cc(C(C)(C)C)c1O | > 100 | > 100 | > 100 | > 100 | > 100 | > 100 | > 100 | – | – |
| CC12CCC(=O)C[C@H]1CCC(OC=O)C2Br (stereo not given in full) | > 100 | > 100 | > 100 | > 100 | > 100 | > 100 | > 100 | – | > 100 |
| O=C1CCC2(c3ccc(Cl)cc3)Nc3cc(Cl)ccc3N12 (stereo not given) | – | 10.7 | – | – | – | 23.1 | – | 24.6 | > 100 |
| CCOC(=O)c1nc2c(OC)nn(O)cc-2c1[N+](=O)[O-] | – | 50.9 | – | 75.1 | 49.2 | 34.9 | 30 | 29.3 | – |
| COCC(OC)C(CC=C(C#N)C#N)OC (stereo not given) | > 100 | > 100 | > 100 | > 100 | – | > 100 | > 100 | – | > 100 |
| Cc1cc2c(=O)c3ccccc3[nH]c2c(C(N)=O)c1C | > 100 | > 100 | – | > 100 | > 100 | > 100 | > 100 | > 100 | – |
| COc1ccc(OCC(=O)O)c2c1CCCC2=O | – | > 100 | > 100 | > 100 | > 100 | > 100 | > 100 | > 100 | > 100 |
| O=C(/C(=C/c1ccc(Cl)cc1)c1ccccc1)c1ccccc1 | – | > 100 | 41.7 | 47 | 34.8 | 66.9 | 56.8 | – | 45.3 |
| CN(C)CCC(/C=C/c1ccccc1)=N\Nc1ccccc1 | – | 15.2 | – | 15 | 10.7 | 17.1 | 4.61 | 18.6 | – |
| CCOC(=O)c1ccc(/C(C)=N/NC(N)=S)cc1 | – | > 100 | > 100 | > 100 | > 100 | > 100 | > 100 | > 100 | – |
